The CheMixHub viscosity set
Values joined by “and” are separate entries in the source; they are usually repeats but may differ in a detail not shown here. Identical values can stand only once.

Assay: xn = mol fraction of the nth substance listed

ClC(Cl)(Cl)Cl + Cc1ccccc1C
298.15 K, 101 kPa
Conditions | viscosity [mPa·s]
x1 = 0.0656 | 0.722
x1 = 0.2424 | 0.636
x1 = 0.4464 | 0.606
x1 = 0.5536 | 0.628
x1 = 0.5803 | 0.639
x1 = 0.6341 | 0.666
x1 = 0.793 | 0.772
x1 = 0.9312 | 0.872

CCN(CC)CC + CCCCCCC
303.15 K, 101 kPa
Conditions | viscosity [mPa·s]
x1 = 0.00966 | 0.3735
x1 = 0.01875 | 0.3719
x1 = 0.02995 | 0.3707
x1 = 0.0422 | 0.3687
x1 = 0.04845 | 0.3675
x1 = 0.05931 | 0.3663
x1 = 0.07022 | 0.365
x1 = 0.07742 | 0.3639
x1 = 0.08877 | 0.363
x1 = 0.09882 | 0.3622

ClC(Cl)(Cl)Cl + C1COCCO1
101 kPa
Conditions | viscosity
298.15 K, x1 = 0.1175 | 1.203 mPa·s
298.15 K, x1 = 0.219 | 1.208 mPa·s
298.15 K, x1 = 0.373 | 1.193 mPa·s
298.15 K, x1 = 0.5081 | 1.165 mPa·s
298.15 K, x1 = 0.675 | 1.093 mPa·s
298.15 K, x1 = 0.8092 | 1.009 mPa·s
298.15 K, x1 = 0.892 | 0.961 mPa·s
303.15 K, x1 = 0.675 | 1.007 mPa·s
303.15 K, x1 = 0.8092 | 0.938 mPa·s
303.15 K, x1 = 0.892 | 0.896 mPa·s
303.15 K, x2 = 0.0983 | 0.901 mPa·s
303.15 K, x2 = 0.1116 | 0.907 mPa·s
303.15 K, x2 = 0.112 | 0.922 mPa·s
303.15 K, x2 = 0.204 | 0.957 mPa·s
303.15 K, x2 = 0.2198 | 0.9914 mPa·s
303.15 K, x2 = 0.22 | 1.016 mPa·s
303.15 K, x2 = 0.2994 | 1.011 mPa·s
303.15 K, x2 = 0.4025 | 1.055 mPa·s
303.15 K, x2 = 0.4985 | 1.086 mPa·s
303.15 K, x2 = 0.53 | 1.163 mPa·s
303.15 K, x2 = 0.5302 | 1.163 mPa·s
303.15 K, x2 = 0.6286 | 1.164 mPa·s
303.15 K, x2 = 0.629 | 1.164 mPa·s
303.15 K, x2 = 0.7245 | 1.161 mPa·s
303.15 K, x2 = 0.725 | 1.161 mPa·s
303.15 K, x2 = 0.91 | 1.078 mPa·s and 1.092 mPa·s
308.15 K, x1 = 0.219 | 1.024 mPa·s
308.15 K, x1 = 0.5081 | 0.992 mPa·s
308.15 K, x1 = 0.675 | 0.93 mPa·s
308.15 K, x1 = 0.8092 | 0.871 mPa·s
308.15 K, x1 = 0.892 | 0.834 mPa·s
313.15 K, x1 = 0.1175 | 0.95 mPa·s
313.15 K, x1 = 0.219 | 0.945 mPa·s
313.15 K, x1 = 0.373 | 0.934 mPa·s
313.15 K, x1 = 0.5081 | 0.92 mPa·s
313.15 K, x1 = 0.675 | 0.866 mPa·s
313.15 K, x1 = 0.8092 | 0.81 mPa·s
313.15 K, x1 = 0.892 | 0.778 mPa·s
318.15 K, x1 = 0.1175 | 0.882 mPa·s
318.15 K, x1 = 0.219 | 0.876 mPa·s
318.15 K, x1 = 0.373 | 0.865 mPa·s
318.15 K, x1 = 0.5081 | 0.85 mPa·s
318.15 K, x1 = 0.675 | 0.806 mPa·s
318.15 K, x1 = 0.8092 | 0.757 mPa·s
318.15 K, x1 = 0.892 | 0.73 mPa·s

CCCOC(C)=O + CCCCCCCCCC
298.15 K, 101.33 kPa
Conditions | viscosity [mPa·s]
x2 = 0.0879 | 0.565
x2 = 0.1221 | 0.571
x2 = 0.1602 | 0.578
x2 = 0.2376 | 0.591
x2 = 0.3166 | 0.606
x2 = 0.3821 | 0.62
x2 = 0.4847 | 0.644
x2 = 0.6012 | 0.678
x2 = 0.715 | 0.718
x2 = 0.8476 | 0.776
x2 = 0.9258 | 0.817

CCC(C)(O)CC + CO
298.15 K, 101.33 kPa
Conditions | viscosity [mPa·s]
x2 = 0.1032 | 3.799
x2 = 0.2156 | 3.553
x2 = 0.3158 | 3.317
x2 = 0.4019 | 3.048
x2 = 0.5004 | 2.6
x2 = 0.6084 | 2.079
x2 = 0.7088 | 1.568
x2 = 0.8021 | 1.16
x2 = 0.9011 | 0.8027

ClC(Cl)(Cl)Cl + ClC(Cl)Cl
Conditions | viscosity [mPa·s]
293.15 K, 101.33 kPa, x1 = 0.2087 | 0.6645
293.15 K, 101.33 kPa, x1 = 0.517 | 0.7319
293.15 K, 101.33 kPa, x1 = 0.9083 | 0.9238
298.15 K, 101 kPa, x1 = 0.1566 | 0.569
298.15 K, 101 kPa, x1 = 0.5099 | 0.659
298.15 K, 101 kPa, x1 = 0.7699 | 0.761
298.15 K, 101 kPa, x2 = 0.2298 | 0.761
298.15 K, 101 kPa, x2 = 0.51 | 0.659
298.15 K, 101 kPa, x2 = 0.8437 | 0.569
298.15 K, 101.33 kPa, x1 = 0.2087 | 0.6296
298.15 K, 101.33 kPa, x1 = 0.517 | 0.6888
298.15 K, 101.33 kPa, x1 = 0.9083 | 0.8561
298.16 K, 101 kPa, x2 = 0.151 | 0.816
298.16 K, 101 kPa, x2 = 0.328 | 0.732
298.16 K, 101 kPa, x2 = 0.61 | 0.633
298.16 K, 101 kPa, x2 = 0.803 | 0.583
303.15 K, 101.3 kPa, x1 = 0.502 | 0.6248
303.15 K, 101.33 kPa, x1 = 0.2087 | 0.5964
303.15 K, 101.33 kPa, x1 = 0.517 | 0.6543
303.15 K, 101.33 kPa, x1 = 0.9083 | 0.8041
308.15 K, 101.33 kPa, x1 = 0.2087 | 0.5644
308.15 K, 101.33 kPa, x1 = 0.517 | 0.6241
308.15 K, 101.33 kPa, x1 = 0.9083 | 0.7523
313.15 K, 101.33 kPa, x1 = 0.2087 | 0.5501
313.15 K, 101.33 kPa, x1 = 0.517 | 0.5928
313.15 K, 101.33 kPa, x1 = 0.9083 | 0.7143
318.15 K, 101.33 kPa, x1 = 0.2087 | 0.523
318.15 K, 101.33 kPa, x1 = 0.517 | 0.5657
318.15 K, 101.33 kPa, x1 = 0.9083 | 0.6686
323.15 K, 101.33 kPa, x1 = 0.2087 | 0.5032
323.15 K, 101.33 kPa, x1 = 0.517 | 0.5444
323.15 K, 101.33 kPa, x1 = 0.9083 | 0.6335
